Assay results as given in patent US12679827B2, “Pyrimidine compounds and their pharmaceutical uses” (National Health Research Institutes, priority 2020, dated 2026).

What was measured:
Format in all cases: cell-based
K562 = test: Proliferation inhibition of various cancer cells (PrestoBlue), K562; settings: Homo sapiens, Leukemia, 72 hours
Experimental: (§1) The efficacies of compounds 41 and 86 of Formula (I) in inhibiting proliferation of eleven types of cancer cells were determined using PrestoBlue™ Cell Viability Reagent (ThermoFisher Scientific, USA). The eleven types of cancer cells are small cell lung cancer, non-small cell lung cancer, liver cancer, pancreatic cancer, breast cancer, colon cancer, prostate cancer, neuroblastoma, brain cancer, leukemia, and cholangiocarcinoma.
(§2) More specifically, […], i.e., NCI-H82 (ATCC® HTB-175), NCI-H446 (ATCC® HTB-171), NCI-H69 (ATCC® HTB-119), NCI-H146 (ATCC® HTB-173), NCI-H1792 (ATCC® CRL-5895), NCI-H1299 (ATCC® CRL-5803), SNU-398 (ATCC® CRL-2233), PSN-1 (ATCC® CRL-3211), MIA PaCa-2 (ATCC® CRL-1420), MDA-MB-231 (ATCC® HTB-26), LOVO (ATCC® CCL-229), COLO 205 (ATCC® CCL-222), PC-3 (ATCC® CRL-1435), SK-N-BE(2) (ATCC® CRL-2271), D341 Med (ATCC® HTB-187), K562 (ATCC® CCL-243), MOLM-13 (DSMZ-German Collection of Microorganisms and Cell Cultures GmbH, ACC No. 554), and SNU-478 (KCLB 00478), were seeded at a density of 4000-10000 cells per well in 96-well plates for 24 hours. The cancer cells were then treated with each compound at various concentrations (0-10 μM), followed by incubation for another 72 hours. IC50 values were computed based on duplicated 8-point titration.

NCI-H1792 = test: Proliferation inhibition of various cancer cells (PrestoBlue), NCI-H1792; settings: Homo sapiens, Non-small cell lung cancer, 72 hours
Experimental: as §1, §2

LOVO = test: Proliferation inhibition of various cancer cells (PrestoBlue), LOVO; settings: Homo sapiens, Colon cancer, 72 hours
Experimental: as §1, §2

PC-3 = test: Proliferation inhibition of various cancer cells (PrestoBlue), PC-3; settings: Homo sapiens, Prostate cancer, 72 hours
Experimental: as §1, §2

D341 Med = test: Proliferation inhibition of various cancer cells (PrestoBlue), D341 Med; settings: Brain cancer, 72 hours
Experimental: as §1, §2

NCI-H69 = test: Small-cell-lung cancer cell proliferation inhibition assay (PrestoBlue), NCI-H69; settings: Homo sapiens, MYCN amplified SCLC cells, 72 hours
Experimental: Small cell lung cancer cells NCI-H82 (ATCC HTB-175, cMYC amplified), NCI-H446 (ATCC® HTB-171, cMYC amplified), and NCI-H69 (ATCC® HTB-119, MYCN amplified) were seeded at the density of 5000-10000 cells per well in 96-well plates. After 24 hours, the cancer cells were treated with each compound at various concentrations (0-10 μM) and then incubated for another 72 hours. IC50 values were computed based on duplicated 8-point titration.

Compound	IC50 (K562)	IC50 (NCI-H1792)	IC50 (LOVO)	IC50 (PC-3)	IC50 (D341 Med)	IC50 (NCI-H69)
CCN1CCN(c2cc(Nc3cc(C)[nH]n3)nc(N[C@H]3CCN(C(=O)c4ccc(Cl)cc4F)C3)n2)CC1 [Compound 41]	< 1000 nM	< 2000 nM	< 10000 nM	< 10000 nM	< 200 nM	
CCN1CCN(c2cc(Nc3cc(C)[nH]n3)nc(NC3CCN(C(=O)c4cccc(Cl)c4F)CC3)n2)CC1 [Compound 86]	< 1000 nM	< 2000 nM	< 10000 nM	< 10000 nM	< 300 nM	< 1000 nM
